Laboratory results reported in patent US7196199B2, “Phenoxypropylamine compounds” (Mitsubishi Pharma Corporation, priority 1999, dated 2007).
Structures can show the parent of a compound that is named as a salt. Where two headings read alike, the source gives them in different places. Blank lines part the entries; values can stand above or below the molecule they belong to.

Key:
[1] = molecular target: T1, 5-HT transporter (Rattus norvegicus, UniProt P31652); experiment: 5-HT transporter binding test
T1 construct: Rat brain cortex was homogenized using Polytron; from tissue; host or cells: rat brain cortex membranes
Experimental: Rat brain cortex was homogenized using Polytron in ice-cooled 50 mmol/L Tris-HCl buffer (pH 7.4). After centrifugation at 1000×g and 4° C. for 10 min, the supernatant was transferred to a different centrifugation tube. This was centrifuged at 40000×g and 4° C. for 20 min, and 50 mmol/L Tris-HCl buffer (pH 7.4) was added to the sediment to give a suspension. This was incubated at 37° C. for 10 min, centrifuged at 40000×g and 4° C. for 20 min, and suspended in 50 mmol/L Tris-HCl buffer (pH 7.4) (diluted 100-fold of brain wet weight) containing 120 mmol/L NaCl and 5 mmol/L KCl, which was used as a membrane solution. For binding inhibition test, it was reacted with (^3H) paroxetine prepared to the final concentration of 0.2 nmol/L in a plastic test tube at 25° C. for 90 min. For total binding, a solvent was used and for nonspecific binding, fluvoxamine having a final concentration of 10 μmol/L was used.
Using a cell harvester, the reaction mixture was filtered through a GF/B glass filter treated with 0.1% polyethyleneimine to stop the reaction and washed 3 times with 3 mL of ice-cooled 50 mmol/L Tris-HCl buffer (pH 7.4). The radioactivity was measured using a β plate.

[2] = molecular target: T2, 5-HT1A receptor (Rattus norvegicus, UniProt P19327); experiment: 5-HT1A receptor binding test
T2 sequence (P19327 1-422): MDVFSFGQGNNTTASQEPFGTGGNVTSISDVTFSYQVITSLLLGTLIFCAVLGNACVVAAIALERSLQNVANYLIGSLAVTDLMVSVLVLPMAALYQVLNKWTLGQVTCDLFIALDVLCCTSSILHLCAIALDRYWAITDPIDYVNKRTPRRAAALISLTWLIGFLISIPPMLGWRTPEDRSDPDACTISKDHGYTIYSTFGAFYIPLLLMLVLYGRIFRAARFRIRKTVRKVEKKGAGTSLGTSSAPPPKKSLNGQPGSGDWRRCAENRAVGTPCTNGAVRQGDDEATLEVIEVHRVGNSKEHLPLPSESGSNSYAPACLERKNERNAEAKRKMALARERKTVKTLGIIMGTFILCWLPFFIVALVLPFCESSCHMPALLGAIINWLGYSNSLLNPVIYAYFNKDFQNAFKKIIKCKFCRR
Experimental: The experiment was conducted according to the method of M. D. Hall et al (J. Neurochem. 44, 1685–1696 (1985)).
Cryopreserved rat hippocampus was homogenized in a 20-fold wet weight amount of 50 mM Tris-HCl buffer (pH 7.4), and the homogenate was centrifuged at 500×g for 10 min. The supernatant was centrifuged at 40000×g for 10 min and the sediment was incubated at 37° C. for 10 min, which was followed by centrifugation at 40000×g for 10 min. To the sediment was added a 20-fold amount of 50 mM Tris-HCl buffer (pH 7.4) and the mixture was homogenized, which was followed by centrifugation again at 40000×g for 10 min. 50 mM Tris-HCl buffer (pH 7.4, 100-fold volume) containing 1 mM MnCl2 was added to the sediment and the mixture was homogenized, which was used as a membrane solution. To a 96 well plate were successively added a test solution ([…]), (^3H)-8-OH-DPAT ((±)-8-hydroxy-2-(DL-N-propylamino)tetraline, Sigma, lot No. 57H4131) solution (final concentration 2 nM, […]) and the membrane solution (0.45 ml) preincubated at 37° C., and incubated at 37° C. for 12 min. After completion, the reaction mixture was filtered through a GF/B glass filter and the filter was washed 5 times with 50 mM Tris-HCl buffer (pH 7.4). The radioactivity left on the filter was measured with a Top Count. For total binding measurement, 0.005N hydrochloric acid ([…]) was used, and for the measurement of nonspecific binding, a test solution containing WAY-100635 (final concentration […]) instead of the test substance was used. The total binding and nonspecific binding were measured in quadruplicate, and the test substance was measured in duplicate.
The IC50 value was calculated by two-point interpolation and Ki value was calculated according to the following equation using Kd value obtained from each measurement. Ki=IC50/(1+C/Kd)
IC50: concentration of 50% binding inhibition
C: concentration of ligand

[3] = molecular target: T2, 5-HT1A receptor; experiment: Electrophysical evaluation of agonist/antagonist of 5-HT1A receptor (nystatin perforated patch clamp, dorsal raphe nuclei cell); assay type: cell-based; design: The isolated nerve cell (dorsal raphe nuclei cell) was subjected to nystatin perforated patch clamp method; endogenous in cells; host or cells: acutely dissociated dorsal raphe nuclei neurons of 2-week-old male Wistar rat; conditions: 10^−7 mol/L, isolated rat dorsal raphe nuclei cell; for antagonistic action (% of control) of the test substance on the 8-OH-DPAT induced inward K+ current: 8-OH-DPAT 10^−7 mol/L
Experimental: The experiment followed the method of Katayama et al (Brain Res.; 745, 283–292, 1997).
The brain of 2-week-old male Wistar rat was extracted, and a brain thin section (thickness 350 μm) containing dorsal raphe nuclei was prepared using a microslicer. The brain thin section was treated in Ringer's solution containing pronase (0.4 mg/mL) and protease type X (0.25 mg/mL) at 30° C. for 25 min and 15 min, respectively, and the dorsal raphe nuclei region was micropunched out. The brain thin section punched out was subjected to pipetting in a culture dish filled with the Ringer's solution to isolate the nerve cell. The isolated nerve cell (dorsal raphe nuclei cell) was subjected to nystatin perforated patch clamp method (Akaike & Harata, Jpn. J. Physiol.; 44, 433–437, 1994) and the inward K^+ current induced by the test substance and the like was measured under membrane voltage-clamp condition (VH=−60 mV). For the measurement of the inward K^+ current via the 5-HT1A receptor, an extracellular solution and a patch pipette solution having the following compositions were used simultaneously. • extracellular solution (mmol/L): NaCl, 135; KCl, 20; MgCl2, 1; CaCl2, 2; D-glucose, 10; HEPES, 10; tetrodotoxin, 3×10^−4; LaCl3, 10 • patch pipette solution (mmol/L): KCl, 150; HEPES, 10
To the above-mentioned patch pipette solution was added nystatin. (Sigma, Lot No. 33H0762) to the final concentration of 75 μg/mL before the electric measurement.
The current response was measured with a voltage clamp amplifier (List Medical, L/M-EPC7), and the obtained results were recorded on a chart of a recticorder (Nihondenki Sanei, RECTIHORIZ-8K), digitized by a PCM recording device (NF electric Instruments, RP-882) and videotaped by a VCR (Panasonic, NV-G40).
The administration of the test substance and the like followed a Y-tube method (Murase et al., Brain Res.; 525, 84–91, 1990).
First, 8-OH-DPAT (10^−7 mol/L) was administered to the isolated nerve cell (dorsal raphe nuclei cell) obtained above, and the level of the inward K^+ current response was measured.
8-OH-DPAT was washed out for 2 min from the above-mentioned cells and the test substance and pindolol (reference substance which is an antagonist) were administered for 1 min, and the level of the inward K^+ current response by each of them was measured. From immediately after administration of the test substance or the reference substance, a mixture of 8-OH-DPAT ([…]) and the test substance or reference substance was administered, and the level of the induced inward K^+ current response was measured. The measurement results and the level of the current response in the same cell by 8-OH-DPAT alone were compared, based on which the antagonistic action on the 8-OH-DPAT induction current was considered. Every current response was expressed upon standardizing according to the following calculation equation based on the level of the 8-OH-DPAT (10^−7 mol/L) induction current in the same cell.
The inward K^+ current response inducing action (5-HT1A agonistic action) by the test substance alone was determined from the following equation. inward K^+ current response inducing action (%) by test substance alone=(ITD÷IDPAT)×100 • ITD: level of inward K^+ current response by test substance alone • IDPAT: level of 8-OH-DPAT (10^−7 mol/L) induced inward K^+ current in the same cell
The suppressive effect (5-HT1A antagonistic action) on the 8-OH-DPAT induced inward K^+ current by the test substance was determined according to the following equation. antagonistic action of test substance on 8-OH-DPAT induced inward K^+ current (% of control)=(IMIX÷IDPAT)×100
IMIX: level of 8-OH-DPAT (10^−7 mol/L) induced inward K^+ current in the presence of test substance

[4] = rat brain cortex membrane, (3H) paroxetine 0.2 nmol/L, read-out: 5-HT transporter binding Ki value
[5] = rat hippocampus membrane, (3H)-8-OH-DPAT 2 nM, read-out: 5-HT1A receptor binding Ki value

T1 sequence (P31652 whole entry): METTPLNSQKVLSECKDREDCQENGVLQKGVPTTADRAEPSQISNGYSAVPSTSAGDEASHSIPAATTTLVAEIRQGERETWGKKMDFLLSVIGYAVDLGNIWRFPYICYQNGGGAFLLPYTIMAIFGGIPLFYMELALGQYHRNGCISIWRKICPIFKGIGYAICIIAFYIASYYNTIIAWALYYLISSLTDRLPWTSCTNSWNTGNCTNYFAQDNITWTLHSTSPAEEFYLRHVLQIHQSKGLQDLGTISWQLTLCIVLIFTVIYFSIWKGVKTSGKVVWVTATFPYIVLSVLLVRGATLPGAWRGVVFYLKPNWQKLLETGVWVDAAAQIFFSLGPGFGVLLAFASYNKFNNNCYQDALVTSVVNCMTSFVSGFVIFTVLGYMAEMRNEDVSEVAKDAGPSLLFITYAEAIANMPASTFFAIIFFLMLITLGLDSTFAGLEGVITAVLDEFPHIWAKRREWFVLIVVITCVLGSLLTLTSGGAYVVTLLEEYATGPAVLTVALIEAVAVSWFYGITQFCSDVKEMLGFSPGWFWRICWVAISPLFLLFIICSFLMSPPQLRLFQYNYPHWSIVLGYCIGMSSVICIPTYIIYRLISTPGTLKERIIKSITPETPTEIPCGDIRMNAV

melting point: 223 to 225 °C
SMILES: Cc1nnc(-c2cc3c(OC[C@@H](O)CN4CCC(c5ccc6c(c5)CCCS6)CC4)cccc3o2)o1 (as salt: hydrochloride)

melting point: 222 to 224 °C
SMILES: Cc1nnc(-c2cc3c(OC[C@@H](O)CN4CCC(c5ccc(Cl)c(C(F)(F)F)c5)CC4)cccc3o2)o1 (as salt: hydrochloride) [Example 234, (S)-1-(4-(4-chloro-3-trifluoromethylphenyl)piperidino)-3-(2-(5-methyl-1,3,4-oxadiazol-2-yl)benzo(b)furan-4-yloxy)-2-propanol hydrochloride]

melting point: 168 to 170 °C
SMILES: Cc1nnc(-c2cc3c(OC[C@@H](O)CN4CC=C(c5ccc6occc6c5)CC4)cccc3o2)o1 [Example 238, (S)-1-(4-(benzo(b)furan-5-yl)-5,6-dihydro-2H-pyridin-1-yl)-3-(2-(5-methyl-1,3,4-oxadiazol-2-yl)benzo(b)furan-4-yloxy)-2-propanol]

SMILES: O[C@H](COc1cccc2[nH]ccc12)CN1CCC(O)(c2ccc3ccccc3c2)CC1 [compound for reference, (S)-1-(4-indolyloxy)-3-[4-hydroxy-4-(2-naphthyl)piperidino]propan-2-ol, reference compound]
Ki [1]: 55000 pM | Ki [2]: 160 pM | agonist/antagonist character at 5-HT1A receptor [3]: partial agonist

melting point: 135 to 138 °C
SMILES: Cc1nnc(-c2cc3c(OC[C@@H](O)CN4CC=C(c5ccc6ccoc6c5)CC4)cccc3o2)o1.Cl

melting point: 184 to 186 °C
SMILES: Cc1nnc(-c2cc3c(OC[C@@H](O)CN4CCC(c5ccc(Cl)c(C)c5)CC4)cccc3o2)o1.Cl

melting point: 218 to 220 °C
SMILES: COc1ccc(C2CCN(C[C@H](O)COc3cccc4oc(-c5nnc(C)o5)cc34)CC2)cc1Cl.Cl

Ki [1, 4]: 320 pM | Ki [2, 5]: 750 pM | antagonistic action (% of control) of the test substance on the 8-OH-DPAT induced inward K+ current [3]: almost nil | agonist/antagonist character at 5-HT1A receptor [3]: silent antagonists | inward K+ current inducing action (%) by the test substance alone [3]: almost nil
SMILES: Cc1nnc(-c2cc3c(OC[C@@H](O)CN4CCC(c5ccc(Cl)c(Cl)c5)CC4)cccc3o2)o1 [Example 88, (S)-1-(4-(3,4-dichlorophenyl)piperidino)-3-(2-(5-methyl-1,3,4-oxadiazol-2-yl)benzo(b)furan-4-yloxy)-2-propanol hydrochloride 1/4 hydrate]

Ki [1, 4]: 1100 pM | Ki [2, 5]: 2300 pM | antagonistic action (% of control) of the test substance on the 8-OH-DPAT induced inward K+ current [3]: almost nil | agonist/antagonist character at 5-HT1A receptor [3]: silent antagonists | inward K+ current inducing action (%) by the test substance alone [3]: almost nil
SMILES: CON(C)C(=O)c1cc2c(OC[C@@H](O)CN3CCC(c4ccc5ccccc5c4)CC3)cccc2o1 [Example 6, (S)-4-(2-hydroxy-3-(4-(naphthalen-2-yl)piperidino)propyloxy)-N-methoxy-N-methylbenzo(b)furan-2-carboxamide]

Ki [1, 4]: 180 pM | Ki [2, 5]: 370 pM | antagonistic action (% of control) of the test substance on the 8-OH-DPAT induced inward K+ current [3]: almost nil | agonist/antagonist character at 5-HT1A receptor [3]: silent antagonists | inward K+ current inducing action (%) by the test substance alone [3]: almost nil
SMILES: OCc1nnc(-c2cc3c(OC[C@@H](O)CN4CCC(c5ccc(Cl)c(Cl)c5)CC4)cccc3o2)o1 [Example 136, (S)-3-(4-(3,4-dichlorophenyl)piperidino)-1-(2-(5-hydroxymethyl-1,3,4-oxadiazol-2-yl)benzo(b)furan-4-yloxy)-2-propanol]

melting point: 128 to 130 °C
SMILES: C=C(C)c1nnc(-c2cc3c(OC[C@@H](O)CN4CCC(c5ccc6c(c5)OCO6)CC4)cccc3o2)o1.Cl

melting point: 188 to 190 °C
SMILES: Cc1nnc(-c2cc3c(OC[C@@H](O)CN4CCC(c5ccc(C)c(Cl)c5)CC4)cccc3o2)o1 (as salt: hydrochloride)

melting point: 139 to 141 °C
SMILES: Cc1nnc(-c2cc3c(OC[C@@H](O)CN4CCC(c5ccc(Cl)c(F)c5)CC4)cccc3o2)o1.Cl

Ki [1, 4]: 1600 pM | Ki [2, 5]: 680 pM | antagonistic action (% of control) of the test substance on the 8-OH-DPAT induced inward K+ current [3]: almost nil | agonist/antagonist character at 5-HT1A receptor [3]: silent antagonists | inward K+ current inducing action (%) by the test substance alone [3]: almost nil
SMILES: CC(C)c1nnc(-c2cc3c(OC[C@@H](O)CN4CCC(c5ccc6c(c5)OCO6)CC4)cccc3o2)o1 [Example 138, (S)-1-(2-(5-(1-methylethyl)-1,3,4-oxadiazol-2-yl)benzo(b)furan-4-yloxy)-3-(4-(3,4-methylenedioxyphenyl)piperidino)-2-propanol hydrochloride]
